Results from patent publication US4866039A, “Peptides containing the 18 to 23 residues of vasoactive intestinal peptide, and analogues” (Beecham Group p.l.c., priority 1985, dated 1989).
Residues, ends and D or L forms follow the SMILES beside them.

Test system: rat proximal duodenum
Assay: acid disposal capacity of the rat proximal duodenum (anti-ulcer activity)
Type: in vivo
Details: anaesthetized male Wistar rats; input pH 2.5, second pass; 150nmol/kg/h i.v. infusion; significance P<0.05
Experimental: Method for estimating the acid disposal capacity of the rat proximal duodenum
Male Wistar rats, 180-250g bodyweight, fasted overnight, are anaesthetized with urethane (150mg/100g bodyweight i.m.). The trachea is cannulated, and a gastric cannula, 0.5cm i.d., 3cm long, is inserted into the non-glandular forestomach via a mid-line abdominal incision. The intragastric cannula is exteriorized via a stab wound in the body wall. A triple lumen catheter, 0.3cm o.d., is passed via the gastric cannula through the pylorus. The duodenum is ligated 1cm below the pylorus, and the pylorus ligated around the cannula, thus creating a 1cm proximal duodenal pouch excluding pancreatic and biliary secretions. The two ligatures enclosing the duodenal pouch are placed so as to avoid occluding the blood supply to the duodenal segment. Gastric secretions are allowed to drain freely from the gastric cannula. Compounds are administered dissolved in 0.9% sodium chloride (saline) as a 1.2 ml/h infusion via a catheter inserted in a jugular vein.
The triple lumen catheter is connected as follows. […]
Lumen 2 collects the perfusate and delivers it to a flow cell containing a pH microelectrode. Outflow pH is recorded throughout the experiment. […]
A group size of 6 animals or larger is used and the effect of compounds on the output pH compared to control data determined. […]

In the case of `CC(C)C[C@H](NC(=O)[C@H](Cc1ccc(O)cc1)NC(=O)[C@H](CCCCN)NC(=O)[C@H](CCCCN)NC(=O)[C@@H](NC(=O)[C@H](C)N)C(C)C)C(N)=O` [Example 1, H-Ala-Val-Lys-Lys-Tyr-Leu-NH2] (H-AVKKYL-NH2), the “acid disposal (output pH compared to control)” value is reported as “significant increase in acid disposal”.
